Read-outs that look alike come from different tables or passages of the source.

In general, NOAEL refers to the highest dose or exposure tested at which no adverse effect was seen.

The test system of data set [1] is pentylenetetrazole (Metrazol) induced seizures. In words: Subcutaneous pentylenetetrazole (Metrazol) seizure threshold test (Met) in mice. It counts as in vivo, male Carworth Farms number-1 mice. Conditions: for minimal effective dose: Mus musculus, ip; for Sc MET / Sc MET repeated: protected: mice i.p.; for Sc MET repeated: protected: repeat. Here is the method:
(§1) Compounds were screened for anticonvulsant activity in male Carworth Farms number-1 mice. Test solutions of all compounds were prepared in 30% polyethylene glycol 400, and animals were dosed intraperitoneally at either 30 minutes or 4 hours prior to testing. Testing was conducted on four mice at each of three dose levels (30, 100, and 300 mg/kg).
(§2) In the subcutaneous pentylenetetrazole (Metrazol) seizure threshold test(met), 85 mg/kg pentylenetetrazole was administered as a 0.5% solution in the posterior midline. Protection in this test was defined as a failure to observe a single episode of clonic spasms of at least 5 s duration during the 30 minute period following administration of the convulsive agent.
(§3) Biological testing--Compounds were screened for anticonvulsant activity in male Carworth Farms number-one mice. Test solutions of all compounds were prepared in 30% polyethylene glycol 400, and animals were dosed intraperitoneally at either 30 min or 4 h prior to testing. Testing was conducted on four mice at each of three dose levels (30, 100, and 300 mg/kg).
(§4) In the subcutaneous pentylenetetrazole (Metrazol) seizure threshold test (Met), 85 mg/kg pentylenetetrazole was administered as a 0.5% solution in the posterior midline. Protection in this test was defined as a failure to observe a single episode of clonic spasms of at least 5 s duration during the 30 min period following administration of the convulsive agent.

Data set [2] relates to quinolinic acid induced seizures. As to conditions: intracerebroventricular, CD-1 mice (Baron et al., 1990); cited from earlier work.
Data set [3] can be described thus: Rotorod test for neurological deficit (TOX) in mice. Type of data set: in vivo, male Carworth Farms number-1 mice. As to conditions: mouse, in vivo, ip. Here is the method:
as §1
(§5) Animals were also tested for neurological deficit using the rotorod. After treatment, the animal was placed on a 1 inch diameter knurled plastic rod rotating at 6 rpm. Neurologic deficit was defined as the failure of the animal to remain on the rod for 1 minute.
as §3
(§6) Animals were also tested for neurological deficit using the rotorod. After treatment, the animal was placed on a 1 inch diameter knurled plastic rod rotating at 6 rpm. Neurologic deficit was defined as the failure of the animal to remain on the rod for 1 min.
Background: In the rotarod test animals must keep their balance on a rotating rod.

In data set [4] the test system is maximal electroshock seizures (MES). In words: animal or person. As to conditions: for minimal effective dose: Mus musculus, ip; for MES: mice i.p. Type of data set: in vivo, male Carworth Farms number-1 mice. Here is the method:
as §1
(§7) Maximal electroshock seizures (MES) were elicited with a 60 cycle alternatiing current of 50-mA intensity (five to seven times that necessary to evoke minimal electroshock threshold seizures). Current was delivered via corneal electrodes for 0.2 s. A drop of 0.9% saline was instilled in the eye prior to application of electrodes. Abolition of the hindlimb tonic extension component of the seizure was defined as protection in the MES test.
as §3
(§8) Maximal electroshock seizures (MES) were elicited with a 60 cycle alternating current of 50-mA intensity (five to seven times that necessary to evoke minimal electroshock threshold seizures). Current was delivered via corneal electrodes for 0.2 s. A drop of 0.9% saline was instilled in the eye prior to application of electrodes. Abolition of the hindlimb tonic extension component of the seizure was defined as protection in the MES test.

For data set [5], the system named is inhibitory (strychnine-sensitive) glycine receptors in the spinal cord. As to conditions: White et al. 1989; Huettner 1989; cited from earlier work.
Data set [6] deals with T1, strychnine-insensitive glycine binding site of the NMDA receptor (Rattus norvegicus, UniProt P35439).
T1 construct: Membranes were prepared from rat cerebral cortex; from tissue; host or cells: rat cerebral cortex, "buffy coat" membranes
In words: Inhibition of [3H]glycine specific binding (strychnine-insensitive) in rat cerebral cortex membranes. Conditions: 10 uM compound. Here is the method: Binding Studies--Inhibition of [^3 H]glycine specific binding was assayed using [^3 H]glycine (43 Ci/mmol) obtained from DuPont-New England Nuclear. […] Membranes were prepared from rat cerebral cortex and assays were conducted in Na-free 50 mM HEPES (Sigma) at pH 7.4. Membranes were incubated in a final volume of 1 ml with 20 nM [^3 H]glycine and a 10 uM concentration of the test compound. Although experience has shown that [^3 H]glycine binding in this preparation is strychnine insensitive, 10 uM strychnine was added to the assay mixtures to eliminate the possibility that any effects studied could be mediated through a strychnine-sensitive process. Incubation was continued for 20 min at 4° C. Non-specific binding was determined in the presence of 1 mM glycine and subtracted. All conditions were tested in triplicate in 3 different assays. Binding was terminated using a Brandel M-24C cell harvester employing rapid filtration through GF/C glass fiber filters pre-soaked in 1% (V/V) polyethylenimine. Filters were washed twice with 5 ml buffer cooled to 4° C. Radioactivity bound to the filters was determined with a Beckman LS-500OTD liquid scintillation counter.

Data set [7] relates to seizures induced by electroshock and pentylenetetrazole. The data set can be described thus: Anticonvulsant testing, overall (MES and Met). Conditions: for minimal effective dose: Mus musculus, ip, read-out: dose level with anticonvulsant activity (test not given); for minimal effective dose / anticonvulsant activity (words): mice, intraperitoneal; for CLASS: Phase I Identification: mice, i.p., classes not defined in the patent. It counts as in vivo, male Carworth Farms number-1 mice. Here is the method:
as §1, §7, §2, §3, §8, §4

A further data set has as its system anticonvulsant activity. Conditions: Wong et al., 1986; Singh et al., 1990; cited from earlier work.
The nature of data set [8]: Solubility in aqueous solutions and in chloroform and other non-polar solvents. Type of data set: physicochemical.
Data set [9] concerns neurological deficit (rotorod). In words: Rotorod test for neurological deficit (TOX) in mice. It counts as in vivo, male Carworth Farms number-1 mice. As to conditions: mouse, in vivo. Here is the method: as §1, §5, §3, §6
For the next data set, the system named is quisqualate receptor. As to conditions: cited from earlier work.
In a further data set the test system is kainate receptor. As to conditions: cited from earlier work.
The subject of the next data set is NMDA receptor. Conditions: cited from earlier work.
Where [10] appears, read: Table 7, value without parentheses = effective dose, read-out: Effective Intraperitoneal Dose, Met.
Setting [11] is: mice, intraperitoneal, read-out: dose active in Met test.
Setting [12] is: Table 7, value without parentheses = effective dose, read-out: Effective Intraperitoneal Dose, MES.
Where [13] appears, read: mice, intraperitoneal, read-out: dose active in MES test.

As for `O=C(O)c1cc(O)c2c(Cl)cc(Cl)cc2n1` [5,7-di-Cl-kyn-2-COOH], the minimal effective dose in [1] (setting [10]) and in data set [1] (setting [11]) was 300 mg/kg in each case. Also, in [1] (mice, intraperitoneal), the “Met activity” value is reported as “mild Met activity”. Further, the “protection against quinolinic acid induced seizures” value in data set [2] is “protect against quinolinic acid induced seizures”. The no-observed-adverse-effect level (NOAEL) in data set [3] amounted to 300 mg/kg.
In the case of `CCOC(=O)c1cc2cc(F)ccc2[nH]1` [5-F-indole-2-ethyl ester, 5-fluoro-indole-2-ethyl carboxylate], the minimal effective dose in data set [1] (setting [10]) was 300 mg/kg; in data set [1] (setting [11]), 300 mg/kg; in [4] (setting [12]), 100 mg/kg; in [4] (setting [13]), 100 mg/kg. Besides, in [3], the NOAEL came out at 300 mg/kg.
For `O=C(O)c1cc2ccccc2[nH]1` [indole-2-carboxylic acid], the “activity at strychnine-sensitive sites” value in data set [5] is “inactive”.
For the compound `CCCCOC(=O)c1cc2cc(F)ccc2[nH]1` [5-F-indole-2-butyl ester, butyl ester of 5-fluoro-indole-2-carboxylic acid], the minimal effective dose in data set [1] (setting [10]), in data set [1] (setting [11]) and in [7] was 300 mg/kg throughout. The “[3H]glycine binding inhibition” value in [6] is “binding characteristics were similar to those of the ethyl ester”. In addition, in [3], the NOAEL amounted to 300 mg/kg.
On to `C[C@]12N[C@H](Cc3ccccc31)c1ccccc12` [MK-801], for which the “anticonvulsant activity (words, literature)” value in the data set on anticonvulsant activity is on record as “demonstrate anticonvulsant activity”.
Take `CCOC(=O)c1cc(O)c2ccc(Cl)cc2n1` [7-Cl-kyn-2-ethyl ester]: the minimal effective dose in data set [1] (setting [10]) and in data set [1] (setting [11]) was 300 mg/kg throughout. This compound also returned an NOAEL in [3] of 300 mg/kg.
On to `CCOC(=O)c1cc(NC)c2c(Cl)cc(Cl)cc2n1` [ethyl 4-methylamino-5,7-dichloro-2-quinoline carboxylate], for which the “solubility in chloroform and other non-polar solvents” value in data set [8] was “appreciably soluble in chloroform and other non-polar solvents”. Moreover, the “Sc MET” value in data set [1] (30 minutes, 30 mg/kg) is reported as 1/1; in data set [1] (30 minutes, 100 mg/kg), 1/1; in data set [1] (30 minutes, 300 mg/kg), 1/1; in data set [1] (4 hours, 30 mg/kg), 0/1; in data set [1] (4 hours, 100 mg/kg), 0/1; in [1] (4 hours, 300 mg/kg) it was 0/1. For the same compound, the minimal effective dose in [1] (setting [10]) is 30 mg/kg; in [1] (setting [11]) it was 30 mg/kg; in data set [7], ≤ 100 mg/kg; in data set [4] (setting [13]) it was 30 mg/kg. Moreover, the “Sc MET repeated: protected” value in data set [1] (30 minutes, 30 mg/kg) is given as 1/4; in data set [1] (30 minutes, 100 mg/kg) it was 2/4; in [1] (30 minutes, 300 mg/kg), 4/4. In addition, the “[3H]glycine binding inhibition” value in data set [6] is on record as “poor binding inhibition”. Moreover, the “Sc MET repeated: toxic” value in data set [9] (30 mg/kg), in data set [9] (100 mg/kg) and in data set [9] (300 mg/kg) was 0/4 in each case. The NOAEL in data set [3] came out at 300 mg/kg. Also, the CLASS in [7] turned out to be 1. Also, the “anticonvulsant activity (words)” value in data set [7] is on record as “high anticonvulsant activity”; in data set [7] (listed as ethyl 4-methylamino-5,7-dichloro-2-quinoline carboxylate) it was “most potent anticonvulsant”; in data set [7] (listed as ethyl-4-methylamino-5,7-dichloro-2-quinoline carboxylate) it was “particularly effective anticonvulsant agent”. The MES in data set [4] (30 minutes, 30 mg/kg) was 0/1; in [4] (30 minutes, 100 mg/kg), 0/3; in data set [4] (30 minutes, 300 mg/kg), 0/1; in [4] (4 hours, 30 mg/kg), 0/1; in data set [4] (4 hours, 100 mg/kg) it was 0/3; in [4] (4 hours, 300 mg/kg), 0/1.
Regarding `CCOC(=O)c1cc(O)c2c(F)cc(F)cc2n1` [5,7-di-F-kyn-2-ethyl ester], the “(Maximum Ineffective) Intraperitoneal Dose, Met” value in [1] (Table 7, value in parentheses = maximum ineffective dose) is recorded as 300 mg/kg. This compound also came in with an NOAEL in [3] of 300 mg/kg. Further, the minimal effective dose in data set [4] (setting [12]) and in data set [4] (setting [13]) was 300 mg/kg throughout. The “MES activity” value in data set [4] (mice, intraperitoneal) is on record as “MES activity at this dose level”.
As for `Cc1c(Cl)ccc2c(O)cc(C(=O)O)nc12` [7-Cl-8-methyl-kyn-2-COOH], the minimal effective dose in [1] (setting [10]) and in data set [1] (setting [11]) was 300 mg/kg each time. In data set [3], this compound gave an NOAEL of 300 mg/kg.
With `O=C(O)c1cc(O)c2ccccc2n1` [kynurenic acid, 4-hydroxy-2-quinolinecarboxylic acid], the “activity at strychnine-sensitive sites” value in [5] is “inactive”. For the same compound, the “excitatory amino acid antagonist activity at quisqualate receptors” value in the data set with quisqualate receptor was “nonselective excitatory amino acid antagonist”. For the same compound, in the data set on kainate receptor, the “excitatory amino acid antagonist activity at kainate receptors” value is on record as “nonselective excitatory amino acid antagonist”. For the same compound, the “excitatory amino acid antagonist activity at NMDA receptors” value with NMDA receptor was “nonselective excitatory amino acid antagonist”.
Turning to `CNc1cc(C(=O)O)nc2cc(Cl)cc(Cl)c12` [5,7-di-Cl-4-methylamino-kyn-2-COOH, 4-methylamino-5,7-dichloro-2-quinoline carboxylic acid], the “Sc MET” value is 0/2 in data set [1] (30 minutes, 30 mg/kg); 0/1 in data set [1] (30 minutes, 100 mg/kg); 1/1 in [1] (30 minutes, 300 mg/kg); 0/1 in [1] (4 hours, 30 mg/kg); 0/1 in data set [1] (4 hours, 100 mg/kg); 0/1 in [1] (4 hours, 300 mg/kg). The minimal effective dose in data set [1] (setting [10]) is 300 mg/kg; in data set [7], ≤ 100 mg/kg; in data set [4] (setting [12]) it was 100 mg/kg; in data set [4] (setting [13]) it was 100 mg/kg. For the same compound, the “[3H]glycine binding inhibition” value in data set [6] is “best inhibitor of [^3 H]glycine binding”. Moreover, the “Effective Intraperitoneal Dose, Rotorod” value in data set [9] (ip) came out at 100 mg/kg. Also, the “dose causing neurological deficit on rotorod” value in data set [9] (ip) stood at 300 mg/kg. In addition, the TOX comment result in data set [9] (ip, 300 mg/kg) is “Unable to hold onto rotorod”. In data set [7], this compound came in with a CLASS of 2. Besides, the MES in data set [4] (30 minutes, 30 mg/kg) is reported as 0/1; in data set [4] (30 minutes, 100 mg/kg) it was 0/3; in [4] (30 minutes, 300 mg/kg), 1/1; in [4] (4 hours, 30 mg/kg), 0/1; in data set [4] (4 hours, 100 mg/kg), 0/3; in data set [4] (4 hours, 300 mg/kg) it was 0/1.

(Values after patent US5493027A, “Anticonvulsive agents and uses thereof” (priority 1993, dated 1996).)
